# Legend:
# Format in all cases: cell-based
# [1] = system: SARS-CoV-2 pseudovirus Omicron (B.1.1529) into ACE2h cells
# [2] = system: SARS-CoV-2 Delta (B.1.617.2) pseudovirus into ACE2h cells; assay: microbe, parasite or virus in culture
# [3] = system: ACE2 high expressing-HEK293T cells (ACE2h cells); details: 24 h, even at 100 μM
# Method: For cytotoxicity assay, ACE2^h cells were seeded into 96-well plates at a density of 1×10^4 cells per well and then treated with different concentrations of OA (0.01, 0.1, 1, 10, 100 μM) for 24 h, then 10 μL of Cell Counting Kit (IV08-500, Invigentech, USA) solution was added to each well followed by 2 h of incubation. The relative cell viability was assessed by the detection of the absorbance at 450 nm using a microplate reader (Infinite F50, Thermo Fisher, China). The survival rate of ACE2^h cells was calculated as the following formula: Survival rate = [(OD Treated –OD Blank) / (OD Control−OD Blank)] × 100%.
smiles,measurement,setting,value
"O=C(O)C(=O)O [OA, Oxalic acid]",luciferase activity compared to the control,[1],significantly reduced
same,expression of green fluorescent protein in ACE2h cells,[2],significantly reduced
same,IC50,"[2]; Pseudovirus, read-out: IC50, inhibition of entry of Delta pseudovirus into ACE2h cells",26 µM
same,cytotoxic effect (cell viability),[3],no significant cytotoxic effect
